Patent US20260256751A1, “COMBINATION OF BETA-2-ADRENERGIC RECEPTOR AGONISTS AND GLP-1 RECEPTOR AGONISTS FOR USE IN TREATING HYPERGLYCAEMIA” (ATROGI AB, priority 2023, published 2026)

Key:
[1] = tested on: differentiated L6-myotubes; assay: cAMP production relative to isoprenaline (Biological example 2 of WO 2019/053427); format: cell-based; settings: 0.25 h, compound at 10 μM, activity relative to isoproterenol at 10 μM
Summary of the method: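 Differentiated L6 myotubes stimulated 15 min with test compound or isoprenaline, each at final 1×10^−5 M, in HBSS with 1% BSA, 5 mM HEPES, 1 mM IBMX, pH 7.4. cAMP production by the compound expressed relative to that induced by the same concentration of isoprenaline.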

[2] = tested on: differentiated L6-myotubes; assay: Glucose uptake screen (Biological example 1 of WO 2019/053427); format: cell-based; settings: compound at 10 μM, activity relative to isoproterenol at 10 μM, read-out: Biological example 1 of WO 2019/053427 (GU)
Summary of the method: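 Rat L6 myoblasts were differentiated into myotubes over 7 days in 2% FBS, then serum-starved overnight. Cells were stimulated with 1×10^−5 M compound plus β2 antagonist ICI-118551 for 1 h 40 min and re-dosed for 20 min in glucose-free medium. Uptake of 50 nM ^3H-2-deoxyglucose over 10 min was counted after NaOH lysis.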

Row | SMILES | Emax at 10 µM [1] | Emax at 10 µM [2]
1 | CO[C@H]1CC[C@H](C[C@@H]2CC[C@H]([C@@H](O)c3cncc(F)c3)N2)CC1 [Compound 332, (S)-[(2R,5S)-5-{[(1r,4S)-4-methoxycyclohexyl]methyl}-2-pyrrolidinyl](5-fluoro-3-pyridyl)methanol] | < 25% | 25 to 50%
2 | CCC[C@H]1CCC[C@H]([C@H](O)c2cccc(Cl)c2)N1 [Compound 128, (R)-[(2R,6S)-6-propyl-2-piperidyl](m-chlorophenyl)methanol] | < 25% | 25 to 50%
3 | CCC[C@H]1CCCC[C@@H]([C@@H](O)c2cncc(F)c2)N1 [Compound 235, (S)-[(2S,7S)-7-propyl-2-azepanyl](5-fluoro-3-pyridyl)methanol] | < 25% | < 25%
4 | CCC[C@@H]1CCC[C@@H]([C@H](O)c2cccc(Cl)c2)N1 [Compound 115, (R)-[(2S,6R)-6-propyl-2-piperidyl](m-chlorophenyl)methanol] | < 25% | > 75%
5 | CNS(=O)(=O)[C@H]1CC[C@H](CC(C)(C)NC[C@H](O)c2cccc(F)c2)CC1 [Compound 476, (R)-2-{1,1-dimethyl-2-[(1r,4R)-4-(methylaminosulfonyl)cyclohexyl]ethylamino}-1-(m-fluorophenyl)-1-ethanol] | 25 to 50% | > 75%
6 | CC(C)(NC[C@H](O)c1cncc(F)c1)[C@H]1CC[C@H](OCc2ccccc2)CC1 [Compound 281, (R)-1-(5-fluoro-3-pyridyl)-2-{1-methyl-1-[(1r,4R)-4-(benzyloxy)cyclohexyl]eth-ylamino}-1-ethanol] | < 25% | 50 to 75%
7 | CC12CCC([C@@H](O)c3cccc(Cl)c3)(CC1)N2 [Compound 196, (S)-(m-chlorophenyl)(4-methyl-7-azabicyclo[2.2.1]hept-1-yl)methanol] | < 25% | 25 to 50%
8 | CC1(C)C[C@@H]([C@@H](O)c2ccccc2F)N1 [Compound 205, (S)-[(S)-4,4-dimethyl-2-azetidinyl](o-fluorophenyl)methanol] | < 25% | 25 to 50%
9 | CCCCNC[C@H](O)c1cccc(F)c1F [Compound 77, (R)-2-(butylamino)-1-(2,3-difluorophenyl)-1-ethanol] | < 25% | > 75%
10 | CC(C)(C[C@H]1CC[C@@H](NC(=O)OC(C)(C)C)CC1)NC[C@H](O)c1cncc(F)c1 [Compound 469] | < 25% | > 75%
11 | CS(=O)(=O)N[C@H]1CC[C@@H](C[C@@H]2CC[C@H]([C@H](O)c3cccc(F)c3)N2)CC1 [Compound 510, (R)-[(2R,5S)-5-{[(1s,4R)-4-(mesylamino)cyclohexyl]methyl}-2-pyrrolidinyl](m-fluorophenyl)methanol] | < 25% | > 75%
12 | CC(C)(C[C@H]1CC[C@@H](N)CC1)NC[C@H](O)c1cccc(C#N)n1 [Compound 418, 6-[(S)-2-{1,1-dimethyl-2-[(1s,4R)-4-aminocyclohexyl]ethylamino}-1-hydroxyethyl]-2-pyridinecarbonitrile] | < 25% | 50 to 75%
13 | CCCCNC(C)C(O)c1ccc(O)cc1 (stereo not drawn) [Compound 12, 2-(butylamino)-1-(p-hydroxyphenyl)-1-propanol] | < 25% | 50 to 75%
14 | CC(C)(C)NC[C@H](O)c1cncc(F)c1 [Compound 99, (R)-2-(tert-butylamino)-1-(5-fluoro-3-pyridyl)-1-ethanol] | 25 to 50% | > 75%
15 | CO[C@H]1CC[C@@H](C(C)(C)NC[C@H](O)c2cncc(F)c2)CC1 [Compound 252, (R)-1-(5-fluoro-3-pyridyl)-2-{1-methyl-1-[(1s,4S)-4-methoxycyclohexyl]ethyl-amino}-1-ethanol] | < 25% | < 25%
16 | CC(C)(C)NC[C@H](O)c1cccc(N)c1F [Compound 91, (R)-1-(3-amino-2-fluorophenyl)-2-(tert-butylamino)-1-ethanol] | 25 to 50% | > 75%
17 | O[C@@H](c1cncc(F)c1)C12CCC(COCc3ccc(F)cc3)(CC1)N2 [Compound 442, (S)-(4-{[(p-fluorophenyl)methoxy]methyl}-7-azabicyclo[2.2.1]hept-1-yl)(5-fluoro-3-pyridyl)methanol] | < 25% | 25 to 50%
18 | CC12CCC([C@@H](O)c3ccncc3F)(CC1)N2 [Compound 253, (S)-(3-fluoro-4-pyridyl)(4-methyl-7-azabicyclo[2.2.1]hept-1-yl)methanol] | < 25% | < 25%
19 | CC12CC(C1)[C@@H]([C@H](O)c1ccccc1F)N2 [Compound 213, (R)-{(S)-1-methyl-2-azabicyclo[2.1.1]hex-3-yl}(o-fluorophenyl)methanol] | < 25% | > 75%
20 | CO[C@H]1CC[C@H](CCC(C)(C)NC[C@H](O)c2cccc(F)c2)CC1 [Compound 265, (R)-2-{1,1-dimethyl-3-[(1r,4S)-4-methoxycyclohexyl]propyl-amino}-1-(m-fluorophenyl)-1-ethanol] | < 25% | 50 to 75%
21 | O[C@@H](c1cncc(F)c1)[C@H]1CC[C@H](Cc2ccc(Cl)cc2)N1 [Compound 405, (S)-{(2R,5R)-5-[(p-chlorophenyl)methyl]-2-pyrrolidinyl}(5-fluoro-3-pyridyl)methanol] | < 25% | > 75%
22 | COC(=O)[C@H]1CC[C@H](CC(C)(C)NC[C@H](O)c2cncc(F)c2)CC1 [Compound 354, methyl (1R,4r)-4-{2-[(R)-2-(5-fluoro-3-pyridyl)-2-hydroxyethylamino]-2-methylpropyl}cyclohexanecarboxylate] | < 25% | 50 to 75%
23 | CCS(=O)(=O)N[C@H]1CC[C@@H](CC(C)(C)NC[C@H](O)c2cccc(F)c2)CC1 [Compound 524, (R)-2-{1,1-dimethyl-2-[(1s,4S)-4-(ethylsulfonylamino)cyclohexyl]ethylamino}-1-(m-fluorophenyl)-1-ethanol] | < 25% | 50 to 75%
24 | CC(=O)N(Cc1ccccc1)[C@H]1CC[C@H](C[C@@H]2CC[C@H]([C@@H](O)c3cccc(F)c3)N2)CC1 [Compound 481, N-[(1S,4r)-4-({(2S,5R)-5-[(S)-(m-fluorophenyl)hydroxymethyl]-2-pyrrolidinyl}methyl)cyclohexyl]-N-benzylacetamide] | < 25% | < 25%
25 | CC(C)(C)NC[C@H](O)c1cncc(O)c1 [Compound 100, 5-[(R)-2-(tert-butylamino)-1-hydroxyethyl]-3-pyridinol] | < 25% | > 75%
26 | CO[C@H]1CC[C@@H](CCNC[C@H](O)c2cccc(F)c2)CC1 [Compound 237, (R)-1-(m-fluorophenyl)-2-{2-[(1s,4S)-4-methoxycyclohexyl]ethyl-amino}-1-ethanol] | < 25% | 50 to 75%
27 | O[C@@H](CNCCC[C@H]1CC[C@@H](OCc2ccccc2)CC1)c1cccc(F)c1 [Compound 277, (R)-1-(m-fluorophenyl)-2-{3-[(1s,4R)-4-(benzyloxy)cyclohexyl]pro-pylamino}-1-ethanol] | < 25% | 25 to 50%
